The source of these data is PMC8509398, “Proteolytic Cleavage of Bioactive Peptides and Protease-Activated Receptors in Acute and Post-Colitis” (International Journal of Molecular Sciences, 2021).

Molecules are shown by their SMILES. Residues, ends and D or L forms follow the SMILES beside them. Bounds are passed on as bounds.

The target of this series is pancreatic elastase I (Sus scrofa, UniProt P00772). As to the kind of experiment: Cleavage of peptides by purified pancreatic elastase, MALDI-TOF/TOF. To be noted: 25 nM protease, 10 µM peptide; for Incubation time at which the first cleavage or decrease of the full-length peptide was observed, pancreatic elastase: 37 °C, time points 2, 5, 10, 30 min; for TL disarming (D), Pancreatic Elastase / TL unmasking (U), Pancreatic Elastase: PAR-based peptides; for TL disarming (D), Pancreatic Elastase / TL unmasking (U), Pancreatic Elastase / Efficiency of the first cleavage in the peptide, Pancreatic Elastase: 37 °C, 2, 5, 10 and 30 min; for Efficiency of the first cleavage in the peptide, Pancreatic Elastase: stopped with 2% TFA. From the text:
Trypsin-like proteases included in the experiments are trypsin-1, -2 and -3, tryptase (Enzo LifeSciences), thrombin (Sigma-Aldrich) and cathepsin G (Sigma-Aldrich). Trypsin-1, -2 and -3 were produced as described by Koistinen et al. and Wu et al.. Two elastase-like enzymes, neutrophil elastase (Enzo LifeSciences, Farmingdale, NY, USA) and pancreatic elastase I (Sigma-Aldrich) were included as well. All enzymes were from human origin except for pancreatic elastase from porcine pancreas.
Reaction mixtures with purified enzymes were compiled in an identical way. […] Substance P was added as the standard peptide except for the reaction mixtures with substance P or bradykinin as the peptide of interest, where angiotensin II (Bachem) was added.
The TFA mixtures were thawed on ice and desalted using C18 zip-tips (Merck Millipore®, Burlington, MA, USA) with a capacity of 5 µg protein. Retained peptide fragments were eluted directly on the MALDI target plate. Next, 0.5 µL of a 2.5 mg/mL α-cyano-4-hydroxycinnamic acid (Sigma-Aldrich) matrix solution (in 70% acetonitrile, 0.1% TFA) was spotted on top of the sample. A 6-Peptide mixture Kit (AB Sciex, Framingham, MA, USA) containing bradykinin (2–9), angiotensin I, glu1-fibrinopeptide, ACTH (1–17), ACTH (18–39) and ACTH (7–38) was diluted with matrix and spotted on the plate as well.
MS and MS/MS data for peptide fragment identification were obtained with a MALDI-TOF/TOF instrument (4800 MALDI TOF/TOF™, Applied Biosystems, Waltham, MA, USA) and instrument parameters were set using 4000 Series Explorer™ software. MS spectra were recorded in positive reflector mode in a mass range from 500 to 4000 Da and laser intensity of 4500–4800 Hz. The spectra were calibrated using the calibration mixture mentioned above to a mass tolerance of 0.1 Da. MS/MS spectra were recorded with high-energy collision-induced dissociation and the laser intensity was increased by 10%.
Identified fragments were confirmed using the MS/MS spectra and mMass 5.5.0 by Martin Strohalm. The relative intensities of the fragments were calculated as the ratio of the intensity of the peak of interest to the intensity of the peak of the standard peptide.

Chain of pancreatic elastase I (P00772 27-266): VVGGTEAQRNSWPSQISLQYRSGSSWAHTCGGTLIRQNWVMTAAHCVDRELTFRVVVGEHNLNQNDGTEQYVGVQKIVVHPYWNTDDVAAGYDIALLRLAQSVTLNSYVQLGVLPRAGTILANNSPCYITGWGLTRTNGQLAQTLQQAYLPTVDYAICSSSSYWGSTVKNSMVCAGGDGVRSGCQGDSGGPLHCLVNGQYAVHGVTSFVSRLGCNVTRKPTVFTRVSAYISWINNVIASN

Regarding `CC[C@H](C)[C@H](NC(=O)[C@H](CC(C)C)NC(=O)[C@H](CO)NC(=O)[C@H](CCCNC(=N)N)NC(=O)CNC(=O)[C@H](CCCCN)NC(=O)[C@H](CO)NC(=O)[C@H](CO)NC(=O)[C@H](CCCNC(=N)N)NC(=O)[C@H](CC(N)=O)NC(=O)[C@@H](NC(=O)CNC(=O)[C@H](CCC(N)=O)NC(=O)[C@@H](NC(=O)[C@@H](N)[C@@H](C)O)[C@@H](C)CC)[C@@H](C)O)C(=O)NCC(=O)N[C@@H](CCCCN)C(=O)N[C@H](C(=O)N[C@@H](CC(=O)O)C(=O)NCC(=O)N[C@H](C(=O)N[C@@H](CO)C(=O)N[C@@H](Cc1c[nH]cn1)C(=O)N[C@H](C(N)=O)C(C)C)[C@@H](C)O)C(C)C` [PAR2-based] (H-TIQGTNRSSKGRSLIGKVDGTSHV-NH2), the “Incubation time at which the first cleavage or decrease of the full-length peptide was observed, pancreatic elastase” value is over 30 min; the “TL disarming (D), Pancreatic Elastase” value was “−”; the “TL unmasking (U), Pancreatic Elastase” value is reported as “−”.
`CC[C@H](C)[C@H](NC(=O)[C@H](C)NC(=O)[C@H](CC(N)=O)NC(=O)[C@H](CCCCN)NC(=O)[C@H](Cc1ccccc1)NC(=O)[C@H](CC(C)C)NC(=O)[C@@H](NC(=O)[C@@H](NC(=O)[C@H](CC(C)C)NC(=O)[C@@H]1CCCN1C(=O)[C@@H](NC(=O)[C@H](CCC(N)=O)NC(=O)[C@H](CO)NC(=O)[C@H](CCCCN)NC(=O)[C@H](CCC(=O)O)NC(=O)[C@H](CO)NC(=O)[C@@H](NC(=O)[C@H](CCSC)NC(=O)[C@H](Cc1ccccc1)NC(=O)CNC(=O)CNC(=O)[C@@H](N)Cc1ccc(O)cc1)[C@@H](C)O)[C@@H](C)O)C(C)C)[C@@H](C)O)C(=O)N[C@H](C(=O)N[C@@H](CCCCN)C(=O)N[C@@H](CC(N)=O)C(=O)N[C@@H](C)C(=O)N[C@@H](Cc1ccc(O)cc1)C(=O)N[C@@H](CCCCN)C(=O)N[C@@H](CCCCN)C(=O)NCC(=O)N[C@@H](CCC(=O)O)C(=O)O)[C@@H](C)CC` [β-endorphin]: the “Efficiency of the first cleavage in the peptide, Pancreatic Elastase” value was “+++ (ultrafast processing within 2 min)” and the “Incubation time at which the first cleavage or decrease of the full-length peptide was observed, pancreatic elastase” value was determined as 2 min.
Turning to `CC[C@H](C)[C@H](NC(=O)[C@@H]1CCCN1C(=O)[C@H](CC(C)C)NC(=O)[C@@H](NC(=O)[C@@H]1CCCN1C(=O)[C@H](CCCCN)NC(=O)[C@H](C)NC(=O)[C@H](CC(C)C)NC(=O)[C@H](CC(N)=O)NC(=O)[C@H](CC(N)=O)NC(=O)[C@@H](NC(=O)[C@H](CC(=O)O)NC(=O)[C@H](CC(N)=O)NC(=O)[C@H](CCC(=O)O)NC(=O)[C@H](CCSC)NC(=O)CN)[C@@H](C)O)[C@@H](C)O)C(=O)N[C@@H](CCCCN)C(=O)N[C@H](C(=O)N[C@@H](Cc1ccccc1)C(=O)N[C@@H](CCCNC(=N)N)C(=O)NCC(=O)N[C@@H](C)C(=O)N1CCC[C@H]1C(=O)N1CCC[C@H]1C(=O)N[C@@H](CC(N)=O)C(=O)N[C@@H](CO)C(=O)N[C@@H](Cc1ccccc1)C(=O)N[C@@H](CCC(=O)O)C(N)=O)[C@@H](C)O` [PAR3-based] (H-GMENDTNNLAKPTLPIKTFRGAPPNSFE-NH2), the “TL disarming (D), Pancreatic Elastase” value is listed as “+++ (ultrafast processing within 2 min)” and the “TL unmasking (U), Pancreatic Elastase” value is reported as “−”.
Turning to `CC[C@H](C)[C@H](NC(=O)[C@H](CO)NC(=O)[C@H](CC(N)=O)NC(=O)[C@H](CC(C)C)NC(=O)[C@H](Cc1ccc(O)cc1)NC(=O)[C@H](CCCCN)NC(=O)[C@H](CCCCN)NC(=O)[C@@H](NC(=O)[C@H](C)NC(=O)[C@H](CCSC)NC(=O)[C@H](CCC(N)=O)NC(=O)[C@H](CCCCN)NC(=O)[C@H](CCCN=C(N)N)NC(=O)[C@H](CC(C)C)NC(=O)[C@H](CCCN=C(N)N)NC(=O)[C@@H](NC(=O)[C@H](Cc1ccc(O)cc1)NC(=O)[C@H](CC(N)=O)NC(=O)[C@H](CC(=O)O)NC(=O)[C@@H](NC(=O)[C@H](Cc1ccccc1)NC(=O)[C@@H](NC(=O)[C@H](C)NC(=O)[C@H](CC(=O)O)NC(=O)[C@H](CO)NC(=O)[C@@H](N)Cc1c[nH]cn1)C(C)C)[C@@H](C)O)[C@@H](C)O)C(C)C)C(=O)N[C@@H](CC(C)C)C(=O)N[C@@H](CC(N)=O)C(N)=O` [VIP, Vasoactive intestinal peptide], the “Efficiency of the first cleavage in the peptide, Pancreatic Elastase” value is reported as “+++ (ultrafast processing within 2 min)” and the “Incubation time at which the first cleavage or decrease of the full-length peptide was observed, pancreatic elastase” value is recorded as 2 min.
As for `CC[C@H](C)[C@H](NC(=O)[C@H](CO)NC(=O)[C@@H]1CCCN1C(=O)[C@@H](NC(=O)[C@H](CO)NC(=O)[C@H](CC(=O)O)NC(=O)[C@H](CC(=O)O)NC(=O)CNC(=O)CNC(=O)CNC(=O)[C@@H](NC(=O)[C@H](CO)NC(=O)CNC(=O)[C@H](CO)NC(=O)[C@H](CCC(=O)O)NC(=O)[C@H](CC(=O)O)NC(=O)[C@H](Cc1ccc(O)cc1)NC(=O)[C@@H](NC(=O)[C@H](CO)NC(=O)[C@@H]1CCCN1C(=O)[C@@H](NC(=O)[C@H](CCC(N)=O)NC(=O)[C@@H](NC(=O)CNC(=O)CN)[C@@H](C)O)[C@@H](C)O)C(C)C)[C@@H](C)O)[C@@H](C)O)C(=O)N[C@@H](CC(C)C)C(=O)N1CCC[C@H]1C(=O)N[C@@H](C)C(=O)N1CCC[C@H]1C(=O)N[C@@H](CCCNC(=N)N)C(=O)NCC(=O)N[C@@H](Cc1ccc(O)cc1)C(=O)N1CCC[C@H]1C(=O)NCC(=O)N[C@@H](CCC(N)=O)C(=O)N[C@H](C(=O)N[C@@H](CS)C(=O)N[C@@H](C)C(=O)N[C@@H](CC(N)=O)C(=O)N[C@@H](CC(=O)O)C(N)=O)C(C)C` [PAR4-based] (H-GGTQTPSVYDESGSTGGGDDSTPSILPAPRGYPGQVCAND-NH2), the “Incubation time at which the first cleavage or decrease of the full-length peptide was observed, pancreatic elastase” value is over 30 min; the “TL disarming (D), Pancreatic Elastase” value is “−”; the “TL unmasking (U), Pancreatic Elastase” value is “−”.
